Data on three compounds can be found in patent publication US20180298332A1, “Microfluidic Model of the Blood Brain Barrier” (EMULATE, Inc., priority 2015, published 2018).

One data set has as its system neurons seeded in chip. Type of data set: cell-based, human.
Data set [1] concerns cell monolayers with tight junctions. The conditions noted are these: cited from earlier work.
The test system of data set [2] is BMECs seeded on a microfluidic device. Nature of the data set: Paracellular permeability assay with Dextran-FITC on chip. The class given is cell-based, human. The following applies: TNF-alpha exposure; Dextran-FITC 4 KDa added to bottom channel, measured in top channel; FIG. 14B. An excerpt: Brain microvascular endothelial cells (BMECs) constitute the blood-brain barrier (BBB) which forms a dynamic interface between the blood and the central nervous system (CNS) in vivo. This highly specialized interface restricts paracellular diffusion of fluids and solutes including chemicals, toxins and drugs from entering the brain. In this example, fluorescein sodium is used in a paracellular permeability assay of the BMECs seeded on a microfluidic device.
Albumin or Dextran conjugated to a fluorescent probe (e.g., FITC or TRITC) are frequently used to monitor changes in leakage, and thus barrier function. In this case, Dextran-FITC, a green fluorescent molecule of 4 KDa, or sodium fluorescein (a 0.3 KDa molecule), was added to the bottom (“blood side”) channel. Paracellular permeability was calculated by measuring the permeability of the fluorescent molecule on the Top (“brain side”) channel. […] FIG. 14B involves TNF-alpha exposure, but the readout is membrane permeability as measured by Dextran-FITC.

Another data set concerns iBMEC barrier function. Kind of data set: TEER measurement on prototype TEER chips under flow. The class given is cell-based, human. The conditions noted are these: chip under flow, then exposure to TNFa; FIG. 14A. Here is the method:
Cells were plated on tall channel PDMS chips equipped with incorporated gold electrodes on each channel (see FIG. 13A). Post seeding of BMECs, transendothelial electrical resistance was measured by connecting the electrodes to an EVOM2 voltohmmeter (see FIG. 13B). […] The “damaged” chip was a failure due to the TEER-Chips being a prototype.
Higher TEER values generally indicate a tighter barrier, which is typically desirable for a blood-brain barrier.

Regarding `NC1=N[C@H](O)[C@H]2[C@H]3O[C@]4(O)O[C@@H]([C@@H](O)[C@@]2(N1)[C@@H]4O)[C@]3(O)CO` [tetrodotoxin], the “neuronal calcium flux activity” value with neurons seeded in chip was “ablates this activity”. As for Lucifer Yellow, the “Permeability (Papp)” value in data set [1] is 0.5 to 1.2 ×10⁻⁶ cm/s. As to TNFa, in data set [2], the “membrane permeability as measured by Dextran-FITC” value is reported as “increase in permeability”. Besides, the “iBMEC barrier function (TEER) after exposure of the chips” value in the data set with iBMEC barrier function is “weakening of barrier function”.
